Paper PMC3409115, “Diverse Inhibitor Chemotypes Targeting Trypanosoma cruzi CYP51” (PLoS Neglected Tropical Diseases, 2012)
Entries after “also recorded” stand apart in the source; their conditions may differ. Where two headings read alike, the source gives them in different places.

What was measured:
[1] = test system: T. cruzi-infected skeletal myoblasts (intracellular amastigotes); assay: Hit cross-validation in T. cruzi-infected mammalian cells (image-based assay); assay type: cell-based, Trypanosoma cruzi
Experimental: Bovine embryo skeletal muscle cells or mouse C2C12 myoblasts (ATCC#CRL-1772) used in the cross-validation assay, were cultivated respectively in RPMI 1640 medium supplemented with 5% horse serum and Dulbecco's Modified Eagle's Medium H-21 containing 4.5 g/l glucose (DMEM H-21) (Cell Culture Facility, UCSF), supplemented with 5% fetal bovine serum (FBS) (Sigma Chemical Co., St. Louis, MO, USA), 25 mM HEPES, 2 mM L-glutamine, 100 U/ml penicillin, 100 µg/ml streptomycin. T. cruzi CAI-72 trypomastigotes were obtained from supernatant of infected cultures 4 to 7 days post-infection. Cultures were maintained at 37°C in an atmosphere of 5% CO2. To harvest parasites, the supernatant of infected cultures containing released trypomastigotes was collected and centrifuged at 600 rpm for 5 min to remove cell debris; the pellet was then discarded and the trypomastigotes remaining in the media were concentrated by spinning the culture tubes at 3300 rpm for 15 minutes. The parasite pellet was re-suspended in 2–5 ml of fresh media. Trypomastigote concentration was determined using a Neubauer hemocytometer.
(§1) Compound cross-validation in T. cruzi infected skeletal myoblasts (bovine embryo skeletal muscle or C2C12 lineage) was performed according to the protocol adapted from Engel and co-authors. Compounds stored as 10 mM stocks in DMSO were freshly diluted immediately prior to use. […] To prepare plates for the assay, skeletal myoblasts cultured in […] flasks were washed once with phosphate buffered saline (PBS) and then incubated with 0.25% trypsin in PBS for 1–3 minutes for detachment. The trypsin solution was removed and myoblasts were released from the flask bottom. Fresh medium was added and cell concentration was determined using a Neubauer hemocytometer. Myoblasts in 50 µl of culture medium were transferred to the clear-bottom wells of black 96-well plates (Greiner Bio-One, #655090) at a density of 1500 cells/well and infected with 50 µl trypomastigote culture at 7500 parasites/well (1∶5 ratio). The cells were allowed to adhere and spread for 24 h in the incubator before the media was removed and 100 µl of fresh medium containing 0, 0.04, 0.12, 0.37, 1.10, 3.30 or 10 µM of test compound was added to each well, followed by 72 h incubation at 37°C in an atmosphere of 5% CO2. Posaconazole was used as a positive control at the same concentrations as the test compounds. The cells were then fixed by adding 100 µl/well of 8% formaldehyde in PBS, resulting in a 4% working concentration of formaldehyde. To stain the nucleus of the host cell and the nucleus and kinetoplast of parasites, cell membranes were first permeabilized by washing once with 100 µl of 0.1% Triton X-100 in PBS, then treated for 1 h with 0.2 µg/ml of the fluorescent DNA dye, 4,6-diamidino-2-phenylindole (DAPI), followed by one wash with PBS. The fixed plates were kept at 4°C and protected from light until images were acquired.
(§2) Plates were allowed to equilibrate to room temperature and images were acquired by the IN Cell Analyzer 2000 (GE Healthcare) with a 20× objective, 5 fields per well, with 350/50 nm and 460/40 nm fluorescent excitation and emission filters. In the absence of drug cytotoxicity, at least 800 cells were imaged and counted per well. The images were processed and analyzed by IN Cell Analyzer Developer 1.6 software. The size parameters used to segment host and parasite organelles were 125 µm^2 for host nucleus, and 1–2 µm^2 for parasite nucleus/kinetoplast. Since DAPI also strongly stains host heterochromatin regions that display as shapes resembling parasites ( Figure 3 ), particles co-localized to host nuclei were excluded from quantification, while parasite aggregates near the host nucleus were counted as infected cells.

T. cruzi CYP51 [2] = target: T1, T. cruzi CYP51 (Trypanosoma cruzi, UniProt Q7Z1V1); assay: Low throughput UV-vis binding assay; conditions: read-out: KD
T1 construct: had the first 21 residues upstream of K22 replaced with the fragment MAKKKKK; His6 (C); made in house
T1 sequence (Q7Z1V1 15-481, looked up, natural form): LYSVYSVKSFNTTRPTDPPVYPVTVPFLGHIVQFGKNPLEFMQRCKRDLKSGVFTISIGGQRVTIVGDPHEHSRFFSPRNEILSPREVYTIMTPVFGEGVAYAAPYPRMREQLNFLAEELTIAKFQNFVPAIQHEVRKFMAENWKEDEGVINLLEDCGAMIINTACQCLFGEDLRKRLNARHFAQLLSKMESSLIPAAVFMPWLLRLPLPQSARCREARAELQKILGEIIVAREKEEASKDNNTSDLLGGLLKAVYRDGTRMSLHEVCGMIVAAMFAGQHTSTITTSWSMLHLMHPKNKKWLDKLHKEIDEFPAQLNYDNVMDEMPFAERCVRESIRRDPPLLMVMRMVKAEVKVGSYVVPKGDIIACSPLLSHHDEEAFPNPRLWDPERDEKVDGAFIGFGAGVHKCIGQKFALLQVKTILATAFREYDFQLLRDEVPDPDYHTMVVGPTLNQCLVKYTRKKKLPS
Experimental: Hit validation in the low throughput UV-vis binding assay was performed according to a previously published but somewhat modified protocol. UV-vis absorption spectra were recorded on a Cary scanning spectrophotometer (Varian) in the 1-cm path length quartz cuvette at 23°C in 100 mM potassium phosphate buffer, pH 7.5, containing 10% glycerol, with CYP51 concentration of 0.5 µM. Compound solutions used for titration were prepared in DMSO at 100 µM and added in 2-µl aliquots to each 3 ml sample using a P2 pipetman (Gilson). Binding affinity of hits was estimated using the quadratic tight-binding equation [27]: […]
where Aobs is the absorption shift determined at any ligand concentration; Amax is the maximal absorption shift obtained at saturation; KD is dissociation constant for the inhibitor-enzyme complex; S is the ligand concentration; Et is the total enzyme concentration.

[3] = test system: host cell (skeletal myoblasts, bovine embryo skeletal muscle or C2C12); assay: Host cell toxicity in the cross-validation assay; assay type: cell-based; conditions: host cells in cross-validation assay, up to 10 µM
Experimental: as §1
as §2, with “cells. Numbers of host cells and intracellular amastigotes were determined based on host cell and parasite nucleus and parasite kinetoplast quantification, providing a measure of growth inhibition during the first 72 h of post-infection treatment compared to untreated controls.” for “cells.”
^aToxicity was assessed as the highest percentage of host cell growth inhibition caused by compound treatment. Scores are assigned as 1-<20%; 2-21-30%; 3- 31-40%; 4-41-50% and 5->50% growth inhibition.

T. cruzi CYP51 [4] = target: T1, T. cruzi CYP51; assay: HTS spectral-mode binding screen, type II difference spectra scored 0-5
[5] = test system: sterol biosynthesis in T. cruzi amastigotes; assay: Lipid analysis of T. cruzi amastigotes (GC-MS of membrane sterols); assay type: cell-based, Trypanosoma cruzi; conditions: amastigotes in C2C12 myoblasts, 24 h drug treatment, concentrations 5x below cidal; posaconazole 100 nM
Experimental: To grow intracellular amastigotes for lipid analysis, C2C12 mouse skeletal myoblasts (4×10^6 cells) cultured in 150 cm^2 flasks as described above were infected with 80×10^6 trypomastigotes for 24 h. The cultures were treated with test compounds 72 h post-infection at concentrations 5× below cidal to avoid completely killing the parasites. Posaconazole at 100 nM was used as a positive control. […] Cells were harvested 96 h post-infection and after 24 h of drug treatment. Cell detachment was initiated by brief treatment with 10 ml of 0.25% trypsin in PBS, followed promptly by replacement with 10 ml of fresh media containing FBS. Harvested cells were washed 3× with 25 ml of PBS to remove FBS and released trypomastigotes. The suspension of infected cells was then transferred to a glass tube and centrifuged at 2000 rpm for 5 min. After washing with PBS, 2 ml of chloroform-methanol solution (2∶1 ratio) was added to re-suspend the cell pellet. Organic solvents were then evaporated under N2 flow, allowing the pellet to dry.
For total lipid extraction, the dry cell pellet was treated with 2 ml chloroform for 24 h. Polar molecules were removed by washing the organic phase 3× with 3 ml water. The organic phase containing the sterols was subsequently dried on an evaporator under N2 flow. The lipids were re-suspended in 2 ml of chloroform-methanol (9∶1 ratio), washed again 3× with 3 ml water, dried under N2 flow and re-suspended in acetonitrile. After an additional wash 3× with 3 ml water, the acetonitrile was dried under an N2 stream. Extracted dry sterols were re-dissolved in hexane and derivatized with N,N-bis(trimethylsilyl)-2,2,2-trifluoroacetamide (BSTFA) (Pierce) by incubating at 37°C for at least 2 hours. Sterols as their trimethylsilyl (TMS) derivatives were analyzed by gas chromatography and mass spectrometry (GC-MS). GC-MS analysis and lipid identification were performed as described previously.

[6] = test system: T. cruzi trypomastigote strain CAI/72 in C2C12 myoblasts; assay: Trypanocidal assay; assay type: cell-based, Trypanosoma cruzi; conditions: 14 days treatment, then one week compound-free
Experimental: Compounds cross-validated with low EC50 against T. cruzi infected cells were further evaluated to determine the “cidal” concentration at which host cells are effectively cured, using the protocol adapted from Engel et al 1998 [30]. To allow long term treatment and avoid culture overgrowth, C2C12 myoblasts were seeded at low density in 96 well plates (10^3 cells/well) and cultured with DMEM H-21 medium supplemented with low FBS concentration (1%), 25 mM HEPES, 2 mM L-glutamine, 100 U/ml penicillin and 100 µg/ml streptomycin. The cells were infected with T. cruzi trypomastigote strain CAI/72 (5 parasites/cell) for 24 h and treated with 0, 0.04, 0.12, 0.37, 1.10, 3.30 or 10 µM test compounds in 100 µl of medium for 14 days. During the course of treatment, medium supplemented with test compounds was replaced every 72 h. After 14 days, drug pressure was withdrawn and incubation continued in the compound-free medium for another week, during which cultures were monitored for reappearance of T. cruzi trypomastigotes in the supernatant.

T. cruzi CYP51 [7] = target: T1, T. cruzi CYP51; assay: Primary HTS in two-wavelength mode; assay type: binding; conditions: 2 µM CYP51, 528 measurements
[8] = Trypanosoma cruzi, Myoblast, 72 h, T. cruzi-infected myoblasts, 72 h treatment, repurchased compound, read-out: EC50 averaged from two independent cross-validation assays for individually repurchased hits
[9] = UV-vis titration, 0.5 µM CYP51, quadratic tight-binding equation, lower limit of method ~5 nM
[10] = T. cruzi-infected myoblasts, 72 h treatment, read-out: EC50 against T. cruzi parasites in HTS assay used to rank order the hits
[11] = Trypanosoma cruzi, Myoblast, 72 h, T. cruzi-infected myoblasts, 72 h treatment, read-out: EC50 against T. cruzi parasites in HTS assay used to rank order the hits
[12] = spectral mode, four serial dilutions 2 µM to 12.5 µM, 2 µM CYP51
[13] = type II difference spectra scored 0-5, second highest rated hit compound cluster
[14] = Trypanosoma cruzi, Myoblast, 72 h, read-out: EC50 against T. cruzi parasites in HTS assay used to rank order the hits

Compound	EC50 [1, 8]	Kd (T. cruzi CYP51 [2]; [9])	Toxicity score (highest percentage of host cell growth inhibition) [3]	EC50 [1, 10]	EC50 [1, 11]	HTS binding score (T. cruzi CYP51 [4]; [12])	EC50 [1, 14]	other results
Brc1ccc(OCCCCCCn2ccnc2)cc1 [Compound 1a]	930 ± 100 nM	≤ 5 nM						
Brc1ccccc1OCCCCn1ccnc1 [Compound 1b]	4580 ± 2000 nM	66 ± 29 nM						
COc1ccc(S(=O)(=O)NC(C)c2ccc(-n3ccnc3)cc2)c2ccccc12 (stereo not drawn) [Compound 3]	200 nM	≤ 5 nM	2 (2-21-30%)	484 nM	480 nM			
COC(=O)C1=C(N)Oc2cc(C)n(CCc3ccc(OC)c(OC)c3)c(=O)c2C1c1cccnc1 (stereo not drawn) [Compound 6, methyl 2-amino-6-[2-(3,4-dimethoxyphenyl)ethyl]-7-methyl-5-oxo-4-pyridin-3-yl-5,6-dihydro-4H-pyrano[3,2-c]pyridine-3-carboxylate]		76 nM	1 (1-<20%)	614 nM	610 nM	3		EC50 ([1]; Trypanosoma cruzi, Myoblast, in Mus musculus, T. cruzi amastigotes cultured in mouse myoblasts, averaged from two independent assays, read-out: EC50 in low throughput validation (repurchased hit)): 80 nM; HTS binding score (T. cruzi CYP51 [4]; [13]): 3
Cc1cccc(Nc2nc(-c3ccncc3)cs2)n1 [Compound 9]	580 nM	≤ 5 nM	1 (1-<20%)	914 nM	910 nM	4		
Clc1ccc(OCCCCCCn2ccnc2)cc1 [Compound 11]	760 nM	65 ± 15 nM	2 (2-21-30%)	948 nM	950 nM			
CC1(C)CC(=O)C2=C(C1)c1c(ccc3ccccc13)NC2c1cccnc1 (stereo not drawn) [Compound 19]			3 (3- 31-40%)		2500 nM	5		Kd (T. cruzi CYP51 [2]; T. cruzi CYP51): ≤ 5 nM; HTS binding score (T. cruzi CYP51 [4]; [13]): 5
COC(=O)C1=C(C)N(Cc2cccnc2)C(=O)/C1=C\c1ccccc1OCc1ccccc1 [Compound 53]			1 (1-<20%)			3	9060 nM	
Cc1ccc(OCC(=O)ONC(=N)c2cccnc2)c(Br)c1 [Compound 54]			1 (1-<20%)			3	9480 nM	
O=C(/C=C/c1cccs1)c1ccncc1 [Compound 56]			3 (3- 31-40%)			3	9620 nM	
Nc1c(C(=O)NCCc2c[nH]c3ccccc23)sc2nc(-c3cccnc3)ccc12 [Compound 57]			1 (1-<20%)			2	9740 nM	
CC[C@@H]([C@H](C)O)n1ncn(-c2ccc(N3CCN(c4ccc(OC[C@@H]5CO[C@@](Cn6cncn6)(c6ccc(F)cc6F)C5)cc4)CC3)cc2)c1=O [posaconazole, reference compound]								Effect on membrane sterol composition by GC-MS [5]: lanosterol (f) and eburicol (h) dominated the GC-MS traces; also recorded: fecosterol (e) was completely inhibited; Trypanocidal concentration [6]: 0.6 nM; EC50 ([1]; Trypanosoma cruzi, Myoblast, 72 h, T. cruzi-infected myoblasts, 72 h treatment, read-out: EC50 in image-based HTS cross-validation assay): 1 nM
CC1CCC(C(=O)NC(Cc2c[nH]c3ccccc23)C(=O)Nc2ccncc2)CC1 (stereo not drawn) [reference, α-[(4-methylcyclohexyl)carbonylamino]-N-4-pyridinyl-1H-indole-3-propanamide]								ΔA = A425−A390 (T. cruzi CYP51 [7]): 0.043±0.004
